What was measured:
[1] = biological target: T1, Serine/threonine-protein kinase Nek2 (Homo sapiens) (UniProt P51955); assay: Inhibition of human NEK2 using myelin basic protein as substrate at 1 uM in presence of 32P-ATP by Hotspot assay relative to control; values are per cent of control
T1 sequence (whole entry): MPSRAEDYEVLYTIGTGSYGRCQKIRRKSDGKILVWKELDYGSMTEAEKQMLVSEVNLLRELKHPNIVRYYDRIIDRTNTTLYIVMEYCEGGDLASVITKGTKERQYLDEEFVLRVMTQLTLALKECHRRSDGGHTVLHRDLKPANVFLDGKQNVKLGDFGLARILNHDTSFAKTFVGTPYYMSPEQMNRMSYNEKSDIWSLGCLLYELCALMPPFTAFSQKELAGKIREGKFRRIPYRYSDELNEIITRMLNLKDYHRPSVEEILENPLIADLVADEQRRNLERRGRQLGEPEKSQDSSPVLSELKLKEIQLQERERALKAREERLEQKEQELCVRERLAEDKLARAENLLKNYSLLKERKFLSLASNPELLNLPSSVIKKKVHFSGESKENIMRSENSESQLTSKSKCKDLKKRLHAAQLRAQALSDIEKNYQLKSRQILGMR

[2] = biological target: Receptor tyrosine-protein kinase erbB-2 (Homo sapiens) (UniProt P04626); assay: Inhibition of human ERBB2/HER2 using poly[Glu:Tyr] (4:1) as substrate at 1 uM in presence of 32P-ATP by Hotspot assay relative to control; values are per cent of control
[3] = biological target: Serine/threonine-protein kinase MARK2 (Homo sapiens) (UniProt Q7KZI7); assay: Inhibition of human MARK2/PAR-1Ba using KKKVSRSGLYRSPSMPENLNRPR as substrate at 1 uM in presence of 32P-ATP by Hotspot assay relative to control; values are per cent of control
[4] = biological target: LIM domain kinase 1 (Homo sapiens) (UniProt P53667); assay: Inhibition of human LIMK1 using cofilin 1 as substrate at 1 uM in presence of 32P-ATP by Hotspot assay relative to control; values are per cent of control
[5] = biological target: Angiopoietin-1 receptor (Homo sapiens) (UniProt Q02763); assay: Inhibition of human TIE2/TEK using poly[Glu:Tyr] (4:1) as substrate at 1 uM in presence of 32P-ATP by Hotspot assay relative to control; values are per cent of control
[6] = biological target: T2, MAP/microtubule affinity-regulating kinase 4 (Homo sapiens) (UniProt Q96L34); assay: Inhibition of human MARK4 using KKKVSRSGLYRSPSMPENLNRPR as substrate at 1 uM in presence of 32P-ATP by Hotspot assay relative to control; values are per cent of control
T2 sequence (whole entry): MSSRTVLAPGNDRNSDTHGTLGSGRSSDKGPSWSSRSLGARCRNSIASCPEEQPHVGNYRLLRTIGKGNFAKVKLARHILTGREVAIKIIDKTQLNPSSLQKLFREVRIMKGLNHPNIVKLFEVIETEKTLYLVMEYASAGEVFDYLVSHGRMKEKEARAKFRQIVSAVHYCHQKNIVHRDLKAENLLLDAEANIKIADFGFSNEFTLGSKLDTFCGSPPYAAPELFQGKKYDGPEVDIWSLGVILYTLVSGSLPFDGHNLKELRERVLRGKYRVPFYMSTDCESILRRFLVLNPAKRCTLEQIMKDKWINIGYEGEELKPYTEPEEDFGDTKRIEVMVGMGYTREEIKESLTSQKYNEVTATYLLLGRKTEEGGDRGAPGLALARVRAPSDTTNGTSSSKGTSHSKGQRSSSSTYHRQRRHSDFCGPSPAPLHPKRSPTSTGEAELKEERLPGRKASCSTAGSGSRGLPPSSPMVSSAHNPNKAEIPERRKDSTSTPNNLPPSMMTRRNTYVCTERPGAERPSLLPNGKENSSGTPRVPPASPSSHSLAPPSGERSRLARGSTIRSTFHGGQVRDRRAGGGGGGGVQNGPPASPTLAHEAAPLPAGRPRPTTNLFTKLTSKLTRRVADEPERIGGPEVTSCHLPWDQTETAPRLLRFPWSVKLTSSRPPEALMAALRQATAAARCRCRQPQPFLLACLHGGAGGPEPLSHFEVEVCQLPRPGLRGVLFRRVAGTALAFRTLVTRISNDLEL

[7] = biological target: MAP kinase-activated protein kinase 2 (Homo sapiens) (UniProt P49137); assay: Inhibition of human MAPKAPK2 using KKLNRTLSVA as substrate at 1 uM in presence of 32P-ATP by Hotspot assay relative to control; values are per cent of control
[8] = biological target: T3, G protein-coupled receptor kinase 3 (Homo sapiens) (UniProt P35626); assay: Inhibition of human GRK3 using casein as substrate at 1 uM in presence of 32P-ATP by Hotspot assay relative to control; values are per cent of control
T3 sequence (whole entry): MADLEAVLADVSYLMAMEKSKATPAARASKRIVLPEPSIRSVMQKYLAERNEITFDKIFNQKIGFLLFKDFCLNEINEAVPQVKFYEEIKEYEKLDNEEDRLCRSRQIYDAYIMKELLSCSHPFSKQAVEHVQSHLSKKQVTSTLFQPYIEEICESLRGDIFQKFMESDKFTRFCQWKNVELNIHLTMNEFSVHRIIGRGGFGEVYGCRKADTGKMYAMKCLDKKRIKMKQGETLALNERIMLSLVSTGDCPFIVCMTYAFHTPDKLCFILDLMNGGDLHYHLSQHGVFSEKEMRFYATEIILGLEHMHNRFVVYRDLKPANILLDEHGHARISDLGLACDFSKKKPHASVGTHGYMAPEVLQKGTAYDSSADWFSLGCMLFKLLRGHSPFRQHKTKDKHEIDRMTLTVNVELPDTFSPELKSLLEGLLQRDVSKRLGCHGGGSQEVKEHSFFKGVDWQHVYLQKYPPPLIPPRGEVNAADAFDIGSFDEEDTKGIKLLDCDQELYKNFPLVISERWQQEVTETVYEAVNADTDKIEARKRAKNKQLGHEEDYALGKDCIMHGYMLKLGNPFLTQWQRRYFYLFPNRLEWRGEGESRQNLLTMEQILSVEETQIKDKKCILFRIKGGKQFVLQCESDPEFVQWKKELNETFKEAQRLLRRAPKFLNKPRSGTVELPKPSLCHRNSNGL

[9] = biological target: Serine/threonine-protein kinase PAK 5 (Homo sapiens) (UniProt Q9P286); assay: Residual activity of human PAK5 using RRRLSFAEPG as substrate at 1 uM in presence of 32P-ATP by Hotspot assay relative to control
Serine/threonine-protein kinase PAK 5 (Homo sapiens), sequence (Q9P286 whole entry, looked up): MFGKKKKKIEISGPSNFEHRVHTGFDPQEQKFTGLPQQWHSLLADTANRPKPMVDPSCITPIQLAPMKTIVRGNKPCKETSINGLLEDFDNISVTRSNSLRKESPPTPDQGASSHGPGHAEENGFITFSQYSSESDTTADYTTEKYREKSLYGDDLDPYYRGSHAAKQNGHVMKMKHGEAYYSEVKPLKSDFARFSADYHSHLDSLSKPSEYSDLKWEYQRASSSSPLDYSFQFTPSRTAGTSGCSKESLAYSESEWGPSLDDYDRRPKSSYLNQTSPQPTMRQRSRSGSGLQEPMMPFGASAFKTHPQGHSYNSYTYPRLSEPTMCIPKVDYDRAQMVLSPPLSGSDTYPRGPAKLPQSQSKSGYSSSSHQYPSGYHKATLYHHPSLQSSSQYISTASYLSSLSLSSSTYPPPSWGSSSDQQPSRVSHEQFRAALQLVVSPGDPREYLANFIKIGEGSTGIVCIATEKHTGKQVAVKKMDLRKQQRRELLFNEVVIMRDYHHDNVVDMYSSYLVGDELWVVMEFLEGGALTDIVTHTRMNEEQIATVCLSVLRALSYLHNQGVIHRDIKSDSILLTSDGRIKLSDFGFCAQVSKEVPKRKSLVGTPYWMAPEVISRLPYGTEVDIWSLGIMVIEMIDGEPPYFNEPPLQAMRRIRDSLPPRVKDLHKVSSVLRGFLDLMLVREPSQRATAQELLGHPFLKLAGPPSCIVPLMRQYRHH

LIM domain kinase 1 (Homo sapiens), sequence (P53667 whole entry, looked up, the tested form may be a part): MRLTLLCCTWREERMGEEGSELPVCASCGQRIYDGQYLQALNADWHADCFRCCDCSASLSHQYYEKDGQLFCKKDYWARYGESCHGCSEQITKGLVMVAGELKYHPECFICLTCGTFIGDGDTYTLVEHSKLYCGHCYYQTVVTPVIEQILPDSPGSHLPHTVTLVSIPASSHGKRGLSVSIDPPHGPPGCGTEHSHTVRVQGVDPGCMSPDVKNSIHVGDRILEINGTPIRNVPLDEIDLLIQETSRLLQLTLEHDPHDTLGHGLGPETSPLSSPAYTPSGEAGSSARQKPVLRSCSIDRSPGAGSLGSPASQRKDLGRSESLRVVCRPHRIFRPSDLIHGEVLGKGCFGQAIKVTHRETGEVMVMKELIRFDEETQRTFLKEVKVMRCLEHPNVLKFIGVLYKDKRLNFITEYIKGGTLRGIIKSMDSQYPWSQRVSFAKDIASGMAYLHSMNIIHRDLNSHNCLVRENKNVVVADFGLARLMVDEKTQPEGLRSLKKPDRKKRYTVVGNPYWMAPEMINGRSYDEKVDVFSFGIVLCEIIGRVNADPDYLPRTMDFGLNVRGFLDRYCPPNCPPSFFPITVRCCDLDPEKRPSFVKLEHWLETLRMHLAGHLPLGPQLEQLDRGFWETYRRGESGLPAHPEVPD
MAP kinase-activated protein kinase 2 (Homo sapiens), sequence (P49137 whole entry, looked up): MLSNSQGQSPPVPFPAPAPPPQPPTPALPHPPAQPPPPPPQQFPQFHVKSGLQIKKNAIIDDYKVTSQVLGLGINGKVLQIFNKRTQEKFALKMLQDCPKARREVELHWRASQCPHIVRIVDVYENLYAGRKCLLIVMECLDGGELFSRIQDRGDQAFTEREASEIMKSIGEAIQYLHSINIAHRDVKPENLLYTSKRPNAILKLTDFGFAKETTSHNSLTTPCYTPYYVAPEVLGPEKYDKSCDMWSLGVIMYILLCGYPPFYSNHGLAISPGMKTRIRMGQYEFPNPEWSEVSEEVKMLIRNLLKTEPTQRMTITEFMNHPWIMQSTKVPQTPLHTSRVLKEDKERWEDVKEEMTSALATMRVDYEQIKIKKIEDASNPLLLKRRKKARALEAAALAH
Receptor tyrosine-protein kinase erbB-2 (Homo sapiens), sequence (P04626 whole entry): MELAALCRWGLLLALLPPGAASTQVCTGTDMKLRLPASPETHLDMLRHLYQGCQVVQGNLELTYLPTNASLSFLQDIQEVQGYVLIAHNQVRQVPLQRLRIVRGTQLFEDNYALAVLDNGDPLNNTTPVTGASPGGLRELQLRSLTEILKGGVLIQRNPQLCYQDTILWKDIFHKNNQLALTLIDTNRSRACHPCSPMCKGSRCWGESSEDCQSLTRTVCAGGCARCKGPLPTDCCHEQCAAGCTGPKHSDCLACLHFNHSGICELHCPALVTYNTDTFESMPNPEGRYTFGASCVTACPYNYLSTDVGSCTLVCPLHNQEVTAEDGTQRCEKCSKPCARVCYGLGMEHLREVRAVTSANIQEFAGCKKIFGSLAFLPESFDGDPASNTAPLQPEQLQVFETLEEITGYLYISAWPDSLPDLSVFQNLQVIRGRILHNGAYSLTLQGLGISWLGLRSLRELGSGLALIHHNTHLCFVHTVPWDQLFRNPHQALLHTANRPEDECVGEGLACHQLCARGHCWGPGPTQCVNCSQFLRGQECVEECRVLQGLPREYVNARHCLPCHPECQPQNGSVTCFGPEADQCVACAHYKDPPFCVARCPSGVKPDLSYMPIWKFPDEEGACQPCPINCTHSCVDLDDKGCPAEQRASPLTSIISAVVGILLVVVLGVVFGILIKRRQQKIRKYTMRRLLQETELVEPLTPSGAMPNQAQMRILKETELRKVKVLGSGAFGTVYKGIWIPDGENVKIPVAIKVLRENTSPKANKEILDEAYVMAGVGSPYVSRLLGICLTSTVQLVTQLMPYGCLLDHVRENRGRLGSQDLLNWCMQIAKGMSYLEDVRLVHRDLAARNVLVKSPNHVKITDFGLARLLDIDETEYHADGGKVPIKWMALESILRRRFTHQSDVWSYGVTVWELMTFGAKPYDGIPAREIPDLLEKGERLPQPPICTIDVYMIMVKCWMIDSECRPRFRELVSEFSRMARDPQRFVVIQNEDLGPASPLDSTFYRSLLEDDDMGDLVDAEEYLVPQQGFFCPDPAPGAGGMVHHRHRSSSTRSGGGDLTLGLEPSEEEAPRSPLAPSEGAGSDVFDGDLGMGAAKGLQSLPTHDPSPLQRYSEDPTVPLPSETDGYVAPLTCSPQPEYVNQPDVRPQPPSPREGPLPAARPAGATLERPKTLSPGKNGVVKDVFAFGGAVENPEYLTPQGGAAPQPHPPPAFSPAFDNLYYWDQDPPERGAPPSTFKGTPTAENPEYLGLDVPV
Serine/threonine-protein kinase MARK2 (Homo sapiens), sequence (Q7KZI7 whole entry, the tested form may be a part): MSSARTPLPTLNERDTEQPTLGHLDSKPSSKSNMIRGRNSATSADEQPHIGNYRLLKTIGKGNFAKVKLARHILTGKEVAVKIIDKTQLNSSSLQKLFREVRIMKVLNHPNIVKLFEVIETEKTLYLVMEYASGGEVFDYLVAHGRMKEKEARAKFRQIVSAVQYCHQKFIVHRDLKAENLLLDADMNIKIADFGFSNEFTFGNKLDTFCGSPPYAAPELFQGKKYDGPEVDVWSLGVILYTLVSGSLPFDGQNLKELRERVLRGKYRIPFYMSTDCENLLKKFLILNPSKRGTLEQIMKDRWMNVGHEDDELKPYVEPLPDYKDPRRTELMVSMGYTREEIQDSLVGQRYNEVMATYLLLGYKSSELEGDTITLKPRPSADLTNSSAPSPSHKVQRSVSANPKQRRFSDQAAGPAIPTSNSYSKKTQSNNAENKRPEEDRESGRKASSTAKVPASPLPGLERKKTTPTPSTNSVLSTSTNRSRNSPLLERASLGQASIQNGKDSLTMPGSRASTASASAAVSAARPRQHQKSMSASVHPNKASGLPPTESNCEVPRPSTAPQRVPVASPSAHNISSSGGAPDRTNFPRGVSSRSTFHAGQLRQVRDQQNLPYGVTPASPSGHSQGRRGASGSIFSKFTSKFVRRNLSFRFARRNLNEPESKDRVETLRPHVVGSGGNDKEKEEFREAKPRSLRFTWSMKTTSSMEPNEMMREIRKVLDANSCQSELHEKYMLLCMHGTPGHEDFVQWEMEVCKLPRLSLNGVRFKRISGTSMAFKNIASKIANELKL
Angiopoietin-1 receptor (Homo sapiens), sequence (Q02763 whole entry): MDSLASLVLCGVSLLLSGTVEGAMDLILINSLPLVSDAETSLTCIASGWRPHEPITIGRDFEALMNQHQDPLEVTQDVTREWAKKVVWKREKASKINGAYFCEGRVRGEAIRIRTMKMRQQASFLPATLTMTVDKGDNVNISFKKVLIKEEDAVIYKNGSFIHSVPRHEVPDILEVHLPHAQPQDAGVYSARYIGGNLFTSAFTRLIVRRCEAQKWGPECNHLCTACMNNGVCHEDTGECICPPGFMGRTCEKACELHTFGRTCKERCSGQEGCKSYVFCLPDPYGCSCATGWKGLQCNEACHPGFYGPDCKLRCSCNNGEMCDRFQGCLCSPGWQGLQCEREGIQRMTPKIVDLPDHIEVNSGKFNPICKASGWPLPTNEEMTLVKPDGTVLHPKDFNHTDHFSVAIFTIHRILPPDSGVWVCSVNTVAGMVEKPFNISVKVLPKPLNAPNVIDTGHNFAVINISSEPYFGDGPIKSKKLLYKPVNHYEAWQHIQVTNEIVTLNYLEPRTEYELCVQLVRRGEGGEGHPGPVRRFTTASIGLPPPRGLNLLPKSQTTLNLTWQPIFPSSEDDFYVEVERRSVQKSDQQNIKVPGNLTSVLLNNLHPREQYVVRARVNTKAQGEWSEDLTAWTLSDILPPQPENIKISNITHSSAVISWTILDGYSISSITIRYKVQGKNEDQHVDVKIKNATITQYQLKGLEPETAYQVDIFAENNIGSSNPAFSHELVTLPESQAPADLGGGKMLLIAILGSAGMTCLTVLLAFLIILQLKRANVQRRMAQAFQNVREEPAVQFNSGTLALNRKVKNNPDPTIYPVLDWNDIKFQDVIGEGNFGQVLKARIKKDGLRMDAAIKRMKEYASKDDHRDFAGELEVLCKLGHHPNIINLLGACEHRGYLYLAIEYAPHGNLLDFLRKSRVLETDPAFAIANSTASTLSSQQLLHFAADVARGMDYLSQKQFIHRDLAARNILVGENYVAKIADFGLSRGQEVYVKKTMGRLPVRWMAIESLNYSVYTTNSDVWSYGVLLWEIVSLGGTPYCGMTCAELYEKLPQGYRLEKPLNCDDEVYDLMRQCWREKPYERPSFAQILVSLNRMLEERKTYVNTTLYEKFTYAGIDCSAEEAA

Row | Compound | residual activity [1] [%] | residual activity [2] [%] | residual activity [3] [%] | residual activity [4] [%] | residual activity [5] [%] | residual activity [6] [%] | residual activity [7] [%] | residual activity [8] [%] | residual activity [9] [%]
1 | CC(C)S(=O)(=O)c1ccc2nccc(Nc3ccc4scnc4c3)c2c1 | 100 | 85 | 96.6 | 93 | 98.7 | 99.9 | 103 | 99.5 | 105
2 | Cc1cc(-c2cnc(N)c3c(-c4ccc5scnc5c4)csc23)n(C)n1 | 101 | 92.3 | 95.2 | 65.6 | 94.2 | 86 | 89.1 | 80.9 | 99.5
3 | CNC(=O)c1ccc2c(c1)ncn2-c1ccc(CC(=O)OC(C)(C)C)cc1 | 102 | 100 | 95.6 | 72.9 | 87.2 | 93.1 | 100 | 108 | 95.7

— ChEMBL document CHEMBL5649166, “RIP3 induces apoptosis independent of pronecrotic kinase activity” (Mol Cell, 2014)
